Values of other authors in patent publication US20220273628A1, “EFFECTS OF LYSERGIC ACID DIETHYLAMIDE (LSD) AND OF LSD ANALOGS TO ASSIST PSY[…] G[…] DISORDER OR OTHER ANXIETY NOT RELATED TO LIFE-T[…]” (Universitätsspital Basel, priority 2021, published 2022).

Key:
5-HT2A receptor = 5-HT2A receptor (Homo sapiens, UniProt P28223); conditions: cited from earlier work
[1] = test system: patients with treatment-resistant depression; conditions: 12 patients, cited from earlier work

Chain of 5-HT2A receptor (P28223 whole entry): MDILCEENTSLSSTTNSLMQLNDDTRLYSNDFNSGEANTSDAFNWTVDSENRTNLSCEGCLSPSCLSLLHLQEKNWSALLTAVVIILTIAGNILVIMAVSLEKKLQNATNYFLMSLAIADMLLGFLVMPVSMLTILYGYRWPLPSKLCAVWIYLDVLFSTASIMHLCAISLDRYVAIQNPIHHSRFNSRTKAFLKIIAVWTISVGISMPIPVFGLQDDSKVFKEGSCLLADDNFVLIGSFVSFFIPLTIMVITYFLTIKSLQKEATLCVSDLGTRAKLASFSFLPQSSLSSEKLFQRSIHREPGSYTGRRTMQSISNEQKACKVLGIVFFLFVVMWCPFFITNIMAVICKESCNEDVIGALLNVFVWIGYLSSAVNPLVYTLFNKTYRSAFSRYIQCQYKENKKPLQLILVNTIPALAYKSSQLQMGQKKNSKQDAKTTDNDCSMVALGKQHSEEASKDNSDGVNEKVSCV

| SMILES | activity at the 5-HT2A receptor (5-HT2A receptor) | transient anxiety during drug onset ([1]; 10 mg and 25 mg) | mild and transient nausea [1] | transient confusion or thought disorder [1] | transient headache [1] |
| --- | --- | --- | --- | --- | --- |
| COc1cc(CCN)cc(OC)c1OC [mescaline] | agonists | – | – | – | – |
| CN(C)CCc1c[nH]c2ccccc12 [DMT, N,N-dimethyltryptamine] | agonists | – | – | – | – |
| CN(C)CCc1c[nH]c2cccc(OP(=O)(O)O)c12 [psilocybin] | – | all patients | four | nine | four |
